Results on 3 molecules are retold here after US6887899B1, “Method for controlling house dust mites with a composition comprising phenylethyl propionate” (Ecosmart Technologies, Inc., priority 1999, dated 2005).

For the data set, the system named is American home dust mites. The data set can be described thus: Efficacy of plant essential oils (actives) against dust mite, residue on glass petri dish. The source says:
Efficacy of different plant essential oils (actives) against dust mite
Two different concentrations of each test actives were used
50 dust mites (American home dust mites) were used per replicate. Four replicates were used per test concentration
Chemicals were applied to the surface of 100 mm glass petri dish in acetone. The control plates received same volume of solvent (acetone) only. All plates left at room temperature for air dry. After 1 hr (complete evaporation of acetone) the dust mites were transferred to each plate.
test actives were tested with and without 2 parts of piperonyl butoxide (PBO), known synergist.
Data are the mean of four replicates (200 dust mites per test concentration per chemical)

[1] abbreviates: 25 ppm, 5 min, W/PBO (2 parts piperonyl butoxide).
[2] abbreviates: 25 ppm, 15 min, W/PBO (2 parts piperonyl butoxide).
[3] abbreviates: 25 ppm, 60 min, W/PBO (2 parts piperonyl butoxide).
Setting [4] is: 250 ppm, 5 min, W/PBO (2 parts piperonyl butoxide).

`OCc1ccccc1` [BA, Benzyl Alcohol]: the “% Mortality” value was 53% (25 ppm, 5 min, W/O PBO); 68% under setting [1]; 61.0% (25 ppm, 15 min, W/O PBO); 73.0% under setting [2]; 68.0% (25 ppm, 60 min, W/O PBO); 79.0% under setting [3]. In addition, the “% Mortality” value was 90% (250 ppm, 5 min, W/O PBO); 100% under setting [4]; 98% (250 ppm, 15 min, W/O PBO); 100% (250 ppm, 60 min, W/O PBO).
With `Cc1ccc(C(C)C)c(O)c1` [thymol], the “% Mortality” value is 67% (25 ppm, 5 min, W/O PBO); 80% under setting [1]; 72.2% (25 ppm, 15 min, W/O PBO); 85.0% under setting [2]; 80.0% (25 ppm, 60 min, W/O PBO); 87.5% under setting [3]. Besides, the “% Mortality” value (250 ppm, 5 min, W/O PBO) is recorded as 100% and the “% Mortality” value under setting [4] is 100%.
Turning to `CCC(=O)OCCc1ccccc1` [PEP, phenethyl propionate], the “% Mortality” value is listed as 54% (25 ppm, 5 min, W/O PBO); 63% under setting [1]; 60.0% (25 ppm, 15 min, W/O PBO); 69.0% under setting [2]; 62.0% (25 ppm, 60 min, W/O PBO); 78.0% under setting [3]. Besides, the “% Mortality” value was 80% (250 ppm, 5 min, W/O PBO); 97% under setting [4]; 92% (250 ppm, 15 min, W/O PBO); 99% (250 ppm, 15 min, W/PBO (2 parts piperonyl butoxide)); 99% (250 ppm, 60 min, W/O PBO); 100% (250 ppm, 60 min, W/PBO (2 parts piperonyl butoxide)).
